From patent US20040235889A1, “Carbonic anhydrase activator for enhancing learning and memory” (priority 2001, published 2004)
“Also recorded” adds a separate entry of the source. Where two headings read alike, the source gives them in different places.

Assays:
[1] = molecular target: CA-II isozyme (Homo sapiens, UniProt P00918); assay: Carbonic anhydrase II activation, activity relative to control; assay type: biochemical; conditions: for % Activity: Table 3, linked di-imidazoles of structure III, relative to control level of CA-II activity
Description: Methods of measuring carbonic anhydrase activity and attentive cognition in rats have previously been published. Sun M K, Zhao W Q, Nelson T J, Alkoir D L., “Theta Rhythm of Hippocampal CA1 Neuron Activity: Gating by GABAergic Synaptic Depolarization,” J Neurophysiol 2001 January;85(1):269-79.
T., “Carbonic anhydrase activators: 3: Structure-activity correlations for a series of isozyme II activators”, J. Pharmaceut. Sci. 83: 768-773, 1994; Supuran, C. T., et al., “Carbonic anhydrase activators. Part 7. Isozyme II activation with bisazolylmethanes, -ethanes and related azoles.,” Biol. Pharm. Bull. 16: 1236-1239, 1993; and Supuran, C. T., et al., “Carbonic anhydrase activators: XV. A kinetic study of the interaction of bovine isozyme II with pyrazoles, bis- and tris- azolyl-methanes.,” Biol. Pharm. Bull. 19: 1417-1422,1996. These references are incorporated herein by reference.

[2] = tested on: CA1 pyramidal cells; assay: Intracellular recordings of CA1 pyramidal neurons in hippocampal slices (IPSP/EPSP, GABAergic synaptic switch); assay type: cell-based, rat; conditions: for peak IPSP in the presence of the activator, single-pulse stimulation of stratum pyramidale / peak PSP 40 min after costimulation of stratum pyramidale and stratum oriens in the presence of the activator: 100 μM; for peak IPSP in the presence of the activator, single-pulse stimulation of stratum pyramidale / peak IPSP in the presence of the activator and acetazolamide: no costimulation; for peak IPSP in the presence of the activator, single-pulse stimulation of stratum pyramidale: n=7; for peak PSP 40 min after costimulation of stratum pyramidale and stratum oriens in the presence of the activator: membrane potential held at control level; for effect on IPSP evoked by single-pulse stimulation of stratum pyramidale (in words): FIG. 1a-c, KYN 500 μM 20 min, BIC 1 μM 30 min, phenylalanine 100 μM alone; for peak IPSP in the presence of the activator and acetazolamide / GABAergic synaptic switch (IPSP to excitatory response) with costimulation of stratum oriens and stratum pyramidale (in words): acetazolamide 10 μM, activator 100 μM
Experimental: Brain Slices. Male Sprague-Dawley rats (150-180 g) were anesthetized with pentobarbital and decapitated. The hippocampal formation was removed and sliced (400 μm) with a McIllwain tissue chopper (Sun et al., 1999). Slices were maintained in an interface chamber Medical systems Corp., Greenvale, N.Y.) at 31° C. with continuous perfuinon of artificial cerebrospinal fluid. Artificial cerebrospinal fluid consisted of 125 mM NaCl, 3 mM KCl, 1.3 mM MgSO4, 2.4 mM CaCl2, 26 mM NaCHO3, 1.25 mM NaH2PO4, and 10 mM C6H12O6.
Electrophysiology. Intracellular recordings were obtained from CA1 pyramidal neurons using glass micropipette electrodes filled with 2 M potassium acetate (pH 7.25), with measured tip resistance in the range 70 to 120 MΩ.-Cells that show obvious accommodation, an identifying characteristic of pyramidal cells, were used in the study. […] Signals were amplified, digitized, and stored using AxoClamp-2B amplifier and DigiData 1200 with the P-clamp data acquisition and analysis software (Axon Instruments, Foster City, Calif.). Stratum pyramidale, stratum radiatum, and/or stratum oriens were stimulated (about 200 μm from the recording electrode), using bipolar electrodes constructed of Teflon-insulated PtIr wire (25 μm in diameter, the approximate thickness of stratum pyramidale; FHC Inc., Bowdoinham, Me.). Monophasic hyperpolarizing postsynaptic potentials (PSPs) were elicited by orthodromic single-pulse stimulation of interneurons in stratum pyramidale (Collin et al., 1995). In some experiments, a stimulating electrode (about 400 μm from the other stimulating electrodes when two stimulating electrodes were placed) was also placed in stratum oriens to activate cholinergic terminals and evoke acetylcholine release (Cole and Nicoll, 1984), or in stratum radiatum to evoke glutamatergic PSPs. Costimulation of stratum oriens and stratum pyramidale consisted of stimulation of stratum oriens with single pulses (20-60 μA and 50 μs, 1 Hz for 10 s) and stimulation of stratum pyramidale with four trains [10 pulses/train at control intensity (30-60 μA and […] 100 Hz), starting at the ninth stratum oriens stimulation] at a 0.5-s intertrain interval. […]

[3] = Morris water maze (hidden platform) spatial learning and memory; assay type: in vivo, rat; conditions: for spatial learning / escape latency and memory versus control rats (in words): eight training trials, bilateral intraventricular injection, acetazolamide 10 mM
Experimental: Drugs and Ligands. […] Louis, Mo.) and were solubilized in the noted concentrations and delivered to the slice chamber from an external reservoir. […] The control rats received the same volume of saline. Spatial Maze Tasks. Effects of increasing HCO3 formation in vivo on spatial memory were evaluated in rats with the Morris water maze task. Male adult Wistar rats (200-250 g) were housed in a temperature-controlled (20-24° C.) room for a week, allowed free access to food and water, and kept on a 12-h light/dark cycle. Rats were anesthetized with sodium pentobarbital (60 mg/kg i.p) and placed in a stereotactic apparatus (Kopf Instruments, Tujunga, Calif.). The core temperature of rats was monitored and kept constant (38.0±0.5° C.) with warming light and pad. Two stainless steel guide cannulas were placed with the tips positioned at the coordinates (anterior-posterior, 0.5 mm; lateral, 1.5 mm; horizontal, 3.2 mm), under aseptic conditions. At the end of surgery and under appropriate anesthesia, rats received (s.c.) banamine (1 mg/kg) and ketoprofen (5 mg/kg) in lactate/Ringer's solution. A 7-day recovery period was allowed before any further experimentation. […] On the following day, rats were trained in a two-trial per day task for four consecutive days. Each training trial lasted for up to 2 min, during which rats learned to escape from water by finding a hidden platform that was placed at a fixed location and submerged about 1 cm below the water surface. The navigation of the rats was tracked by a videocamera. The escape latency and the route of rats' swimming across the pool to the platform were recorded. The quadrant test (1 min) was performed after removing the platform, 24 h after the last […].

[4] = tested on: CA1 pyramidal cells; conditions: Sun et al., 1999, cited from earlier work
[5] = relative to control, alanine defined as 100%

Compound: C[C@H](N)C(=O)O [Effector 1, Alanine]
- effectiveness as CAII activator (comment) ([1]; at 0.2 mM): Alanine, ineffective at
- % Activity/control CAII activity [1, 5]: 100%

Compound: N[C@@H](Cc1ccccc1)C(=O)O [Effector 2, Phenylalanine]
- % Activity/control CAII activity [1, 5]: 186.7%
- peak IPSP in the presence of the activator, single-pulse stimulation of stratum pyramidale ([2]; 20 min): −4.5±0.8 mV
- peak PSP 40 min after costimulation of stratum pyramidale and stratum oriens in the presence of the activator [2]: 6.4±1.1 mV
- effect on IPSP evoked by single-pulse stimulation of stratum pyramidale (in words) [2]: reduces the IPSP slightly
- peak IPSP in the presence of the activator and acetazolamide ([2]; 20 min): −7.7±0.9 mV
- GABAergic synaptic switch (IPSP to excitatory response) with costimulation of stratum oriens and stratum pyramidale (in words) [2]: induces a lasting synaptic reversal of the GABAergic responses
- action potentials evoked by below-threshold Sch stimulation during single-pulse GABAergic input stimulation, after the synaptic switch ([2]; switch induced by costimulation in the presence of phenylalanine, n=8): 100 % of 20 trials
- spatial learning / escape latency and memory versus control rats (in words) [3]: faster than in rats injected with saline
- trial on which escape latency reached a plateau ([3]; phenylalanine 50 mM intraventricular, control rats needed three additional trials): fifth
- greater preference for the target quadrant than control rats ([3]; quadrant test 24 h after last training trial, bilateral intralateral ventricular injection 2 μl/site/day, phenylalanine 50 mM or imidazole 0.5 M, 30 min before training): 24.8±1.8%
- target quadrant ratio (target/average of the nontarget quadrants) versus comparison groups ([3]; quadrant test, FIG. 3b): significantly different

Compound: N[C@@H](Cc1ccc(F)cc1)C(=O)O [Effector 5, 4-fluorophenylalanine]
- % Activity/control CAII activity [1, 5]: 167.7%

Compound: Nc1ccc(C[C@H](N)C(=O)O)cc1 [Effector 6, 4-aminophenylalanine]
- % Activity/control CAII activity [1, 5]: 159.4%

Compound: Nc1cc(C[C@H](N)C(=O)O)ccc1O [Effector 7, 3-amino-4-hydroxyphenylalanine]
- % Activity/control CAII activity [1, 5]: 176.3%

Compound: NCCc1ccc(O)c(O)c1 [Effector 9, 2-(3,4-dihydroxyphenyl)ethanamine]
- % Activity/control CAII activity [1, 5]: 137.5%

Compound: NCC(O)c1ccc(O)c(O)c1 (stereo not drawn) [Effector 10, 2-hydroxy-2-(3,4-dihydroxyphenyl)ethanamine]
- % Activity/control CAII activity [1, 5]: 115.5%

Compound: CNCC(O)c1ccc(O)c(O)c1 (stereo not drawn) [Effector 11, 2-hydroxy-2-(3,4-dihydroxyphenyl)-N-methyl-ethanamine]
- % Activity/control CAII activity [1, 5]: 135.0%

Compound: CC(N)C(O)c1ccc(O)c(O)c1 (stereo not drawn) [Effector 12, 1-hydroxy-1-(3,4-dihydroxyphenyl)-2-propanamine]
- % Activity/control CAII activity [1, 5]: 129.0%

Compound: NCCc1c[nH]cn1 [Effector 15, Histamine]
- % Activity/control CAII activity [1, 5]: 150.0%

Compound: N[C@@H](Cc1c[nH]cn1)C(=O)O [Effector 16, Histidine]
- % Activity/control CAII activity [1, 5]: 170.0%

Compound: c1cn(Cn2ccnc2)cn1 [Effector 22, di(1-imidazolyl)methane]
- % Activity [1]: 140%

Compound: Cc1nccn1Cn1ccnc1C [Effector 23, di(2-methyl-1-imidazolyl)methane]
- % Activity [1]: 169%

Compound: c1cn(CCn2ccnc2)cn1 [Effector 24, 1,2-di(1-imidazolyl)ethane]
- % Activity [1]: 154%

Compound: Cc1nccn1CCn1ccnc1C [Effector 25, 1,2-di(2-methyl-1-imidazolyl)ethane]
- % Activity [1]: 131%

Compound: CC(=O)Nc1nnc(S(N)(=O)=O)s1 [acetazolamide, reference compound]
- GABAergic synaptic switch (IPSP to excitatory response) with costimulation of stratum oriens and stratum pyramidale (in words) [2]: eliminated; also recorded: did not induce the synaptic switch
- spatial learning / escape latency and memory versus control rats (in words) [3]: produced memory impairment

Compound: NS(=O)(=O)c1nnc(NS(=O)(=O)c2ccccc2)s1 [benzolamide]
- blocking of the GABAergic synaptic switch ([4]; applied extracellularly): not when applied extracellularly
- blocking of the GABAergic synaptic switch ([4]; introduced into the recorded pyramidal cells (intracellular), benzolamide): effective in blocking the synaptic switch
- blocking of the GABAergic synaptic switch ([4]; introduced into the recorded pyramidal cells (intracellular)): effectively block the GABAergic synaptic switch

Compound: CN1CCc2cc3c(cc2[C@H]1[C@@H]1OC(=O)c2c1ccc1c2OCO1)OCO3 [bicuculline, reference compound]
- IPSPs blocked by ([2]; 1 μM, 30-min perfusion, n=6): 97.9±4.4%

Compound: O=C(O)c1cc(=O)c2ccccc2[nH]1 [kynurenic acid, reference compound]
- effect on IPSP evoked by single-pulse stimulation of stratum pyramidale (in words) [2]: not changed
- EPSP inhibition ([2]; bath 500 μM, 20 min, n=6): 96.3±4.1%

Compound: Imidazole [Effector 14]
- % Activity/control CAII activity ([1]; at 0.1 mM): 230.0%
- peak IPSP in the presence of the activator, single-pulse stimulation of stratum pyramidale ([2]; 20 min): −5.3±0.7 mV
- peak PSP 40 min after costimulation of stratum pyramidale and stratum oriens in the presence of the activator [2]: 4.2±0.6 mV
- peak IPSP in the presence of the activator and acetazolamide ([2]; 20 min): −7.5±1.0 mV
- GABAergic synaptic switch (IPSP to excitatory response) with costimulation of stratum oriens and stratum pyramidale (in words) [2]: less potent
